Measured values as given in PubChem BioAssay (NCI).
Values joined by “and” are separate entries in the source; they are usually repeats but may differ in a detail not shown here. Equal entries are not always repeated.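 48-hour exposure; five concentrations; linearly interpolated endpoints. GI50: concentration for 50% inhibition of growth. TGI is the concentration that stops growth completely.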

These compounds were tested on MDA-MB-468 breast (assay: NCI-60 cell line screen, 48 h).

Compound | GI50 | TGI
CN(CCO)C1CCN(c2ccc(Nc3ncc4c5ccnc(F)c5n(C5CCCC5)c4n3)nc2)CC1 | 15400 nM | 33.2 µM
Cc1ccc(NS(=O)(=O)c2ccc(-c3cnc(C4CC4)o3)cc2)cc1C | 231 nM | 2.33 µM
COC(=O)c1cc2cc(-c3ccc(OC)cc3)cnc2[nH]1 | 744 nM | 
NS(=O)(=O)c1ccc(Nc2ncc(-c3ccccc3)o2)cc1 | > 25000 nM | > 25 µM
Nc1nc2cc(-c3ccc4ncc(C(=O)N5CCOCC5)n4c3)ccc2o1 | 3820 nM | 45.5 µM
CN1CCN(Cc2ccc(NC(=O)c3cnc(F)c(C#Cc4cnc(N)c5ncccc45)c3)cc2C(F)(F)F)CC1 | 386 nM | 7.68 µM
CO[C@@H](C(=O)N1Cc2[nH]nc(NC(=O)c3ccc(N4CCN(C)CC4)cc3)c2C1)c1ccccc1 | 585 nM and 130 nM | 5.28 µM and > 10 µM
COc1cc(-c2cc(/C=C3\C(=O)Nc4ccc(Cl)cc43)[nH]n2)cc(OC)c1OC | 5230 nM | 88.8 µM
N=C1N(c2ccccc2)C(=S)C(=Nc2ccccc2)N1c1ccccc1 | 7140 nM | 20.8 µM
O=C1c2ccc3c4c(ccc(c24)C(=O)N1CCCNCc1ccccc1F)C(=O)N(CCCNCc1ccccc1F)C3=O | 143 nM | 0.29 µM
CCSc1ccc2c(c1)N(CCCN1CCN(C)CC1)c1ccccc1S2 | 1730 nM | 3.38 µM
CCN(CCCNC(=O)Cc1cc(=O)oc2cc(N(C)C)ccc12)CCNc1ccnc2cc(Cl)ccc12 | 1960 nM | 6 µM
O=c1ccc(N=Nc2ccccc2)ccc1Cl | 2460 nM | 10.8 µM
O=C(C(Br)C(Br)c1ccccc1)C(Br)C(Br)c1ccccc1 (stereo not drawn) | 1040 nM | 3.09 µM
NS(=O)(=O)N(c1cc(C(F)(F)F)cc(C(F)(F)F)c1)C1CCN(Cc2ccc(C(F)(F)F)cc2)CC1 | 5650 nM | 12 µM
CN1CCN(Cc2ccc(NC(=O)c3nc4ccc5[nH]ncc5c4c4c3CCCC4)cc2C(F)(F)F)CC1 | 797 nM | 1.6 µM
CCN(CC)CCCN1C(=O)c2c(c(C)c3c(oc4ccc(O)cc43)c2C)C1=O | 1650 nM | 3.72 µM
COc1ccc(-c2cc3c(OC)c(OC)c(OC)cc3oc2=O)cc1 | 2210 nM | 8.46 µM
Nc1[nH]c(=O)nc2c1cnn2Cc1ccccc1 | > 100000 nM | > 100 µM
CCCCSSC(=S)N(CC)CC | 65100 nM | > 100 µM
COc1ccc(-c2cnoc2-c2ccc(OC)cc2O)cc1 | 844 nM | 5.46 µM
CCCCCCCCCCCCCCCCNC(=O)OC(C)C | 4010 nM | 10.1 µM
O=NNc1ccc(S(=O)c2ccccc2)cn1 (stereo not drawn) | 76200 nM | > 100 µM
CC(C)(Oc1ccc(Cl)cc1)C(=O)NC1C2CC3CC1CC(NS(C)(=O)=O)(C3)C2 (stereo not drawn) | > 100000 nM | > 100 µM
CCC(CC)COC(=O)[C@H](C)N[P@](=O)(OC[C@H]1O[C@@](C#N)(c2ccc3c(N)ncnn23)[C@H](O)[C@@H]1O)Oc1ccccc1 | 491 nM | 3.83 µM
C/C=C(/C(=C/C)c1ccc(O)cc1)c1ccc(O)cc1 | 2000 nM | 6.85 µM
O=[N+]([O-])c1cc([N+](=O)[O-])c(N2CCCC2)cc1NN=C(c1ccc(O)cc1)c1ccc(O)cc1 | 2180 nM | 10.1 µM
